ChEMBL document CHEMBL1201862, “PubChem BioAssay data set” (2004)
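Exposure lasted 48 hours, with cells grown in 96-well plates and compounds tested at five concentrations. The concentration for 50% growth inhibition is given as GI50.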 Calls of active or inactive are those of the source. No stated cut-off is given here; in the data, active = GI50 up to about 1.1 µM and inactive = higher.

Legend:
Experiment in all cases: NCI tumour cell line growth inhibition, 48 h
NCI/ADR-RES = test system: NCI/ADR-RES
SF-539 = test system: SF-539
BT-549 = test system: BT-549
RXF 393 = test system: RXF 393
HCT-15 = test system: HCT-15
CCRF-CEM = test system: CCRF-CEM
MDA-MB-435 = test system: MDA-MB-435
MDA-N = test system: MDA-N
SNB-75 = test system: SNB-75
A549 = test system: A549
Hs-578T = test system: Hs-578T
NCI-H522 = test system: NCI-H522
SNB-19 = test system: SNB-19
PC-3 = test system: PC-3
KM12 = test system: KM12
OVCAR-3 = test system: OVCAR-3
SF-268 = test system: SF-268
NCI-H460 = test system: NCI-H460
A498 = test system: A498
DMS-273 = test system: DMS-273

| SMILES | GI50 (NCI/ADR-RES) | GI50 (SF-539) | GI50 (BT-549) | GI50 (RXF 393) | GI50 (HCT-15) | GI50 (CCRF-CEM) | GI50 (MDA-MB-435) | GI50 (MDA-N) | GI50 (SNB-75) | GI50 (A549) | GI50 (Hs-578T) | GI50 (NCI-H522) | GI50 (SNB-19) | GI50 (PC-3) | GI50 (KM12) | GI50 (OVCAR-3) | GI50 (SF-268) | GI50 (NCI-H460) | GI50 (A498) | GI50 (DMS-273) |
| --- | --- | --- | --- | --- | --- | --- | --- | --- | --- | --- | --- | --- | --- | --- | --- | --- | --- | --- | --- | --- |
| CC1CCC2N(C1)CC1C3(O)CC45OC6(O)C(O)CCC4(C)C6CCC5C3(O)CC(O)C1(O)C2(C)O (stereo not given) | > 100 µM (inactive) | > 100 µM (inactive) | > 100 µM (inactive) | > 100 µM (inactive) | > 100 µM | > 100 µM (inactive) | > 100 µM (inactive) | > 100 µM (inactive) | > 100 µM (inactive) | > 100 µM (inactive) | > 100 µM (inactive) | > 100 µM (inactive) | > 100 µM (inactive) | > 100 µM (inactive) | > 100 µM (inactive) | > 100 µM (inactive) | > 100 µM (inactive) | > 100 µM (inactive) | > 77.6 µM (inactive) |  |
| O=C(O)/C(Cc1ccnc2ccccc12)=N\O | > 100 µM (inactive) | > 100 µM (inactive) | > 100 µM (inactive) | > 100 µM (inactive) | > 100 µM | > 100 µM (inactive) | > 100 µM (inactive) | > 100 µM (inactive) | > 100 µM (inactive) | > 100 µM (inactive) | > 100 µM (inactive) | > 100 µM (inactive) | > 100 µM (inactive) | > 100 µM (inactive) | > 100 µM (inactive) | > 100 µM (inactive) | > 100 µM (inactive) | > 100 µM (inactive) | > 100 µM (inactive) |  |
| CN1CCN(c2cc(-c3cc4ccccc4o3)oc(=O)c2C#N)CC1 |  | 98.4 µM (inactive) |  | 72.6 µM (inactive) | 99.8 µM | 71.4 µM (inactive) |  |  | 80.4 µM (inactive) | 70.8 µM (inactive) |  |  | > 100 µM (inactive) |  | 99.3 µM (inactive) |  | 51.2 µM (inactive) | 58.1 µM (inactive) | 63.8 µM (inactive) | 57.9 µM (inactive) |
| O=[N+]([O-])c1ccccc1S(=O)(=O)c1cccc2c1NCCC2 | 29 µM (inactive) | > 100 µM (inactive) | 32.1 µM (inactive) | 37.8 µM (inactive) | 35 µM | 28 µM (inactive) | 27.7 µM (inactive) | 28.1 µM (inactive) | 14.8 µM (inactive) | 31.9 µM (inactive) | 51.1 µM (inactive) |  | 65.2 µM (inactive) | 27.9 µM (inactive) | 96.4 µM (inactive) | 40.6 µM (inactive) | > 100 µM (inactive) | 44.2 µM (inactive) | > 100 µM (inactive) |  |
| COC(=O)c1ccccc1/N=C(/NC1CCCCCC1)NS(=O)(=O)c1ccc(C)cc1 | > 100 µM (inactive) | > 100 µM (inactive) | > 100 µM (inactive) | > 100 µM (inactive) | > 100 µM | > 100 µM (inactive) | > 100 µM (inactive) | > 100 µM (inactive) | > 100 µM (inactive) | > 100 µM (inactive) | > 100 µM (inactive) | 77.4 µM (inactive) | > 100 µM (inactive) | > 100 µM (inactive) | > 100 µM (inactive) | > 100 µM (inactive) | > 100 µM (inactive) | > 100 µM (inactive) | > 100 µM (inactive) |  |
| CC1Oc2c(c(O)cc3oc(=O)cc(-c4ccccc4)c23)C(=O)C1C (stereo not given) |  | > 100 µM (inactive) |  |  | > 100 µM | > 100 µM (inactive) |  |  | > 100 µM (inactive) |  |  | > 100 µM (inactive) |  |  |  | > 100 µM (inactive) | > 100 µM (inactive) | > 100 µM (inactive) | > 100 µM (inactive) | > 100 µM (inactive) |
| NNC(=O)CCc1ccc2ccc3ccccc3c2c1 | 89.1 µM (inactive) | 54.6 µM (inactive) | 55.8 µM (inactive) | 94.4 µM (inactive) | 82 µM | > 100 µM (inactive) | > 100 µM (inactive) | > 100 µM (inactive) |  |  | 57.7 µM (inactive) | 28.8 µM (inactive) | 85.7 µM (inactive) | 67.3 µM (inactive) | > 100 µM (inactive) | 29.9 µM (inactive) | 62.2 µM (inactive) | > 100 µM (inactive) | 49.2 µM (inactive) |  |
| OC1(c2ccccc2)CC2CCC(C1)N2CCc1ccccc1 (stereo not given) | > 100 µM (inactive) | 81.8 µM (inactive) | 40.1 µM (inactive) | > 100 µM (inactive) | 89.9 µM | 34 µM (inactive) | 55.5 µM (inactive) | 56.8 µM (inactive) | > 100 µM (inactive) | 49.8 µM (inactive) | 5.27 µM (inactive) |  | 93.1 µM (inactive) | 41.6 µM (inactive) | 57.9 µM (inactive) | 85.5 µM (inactive) | > 100 µM (inactive) | 58.9 µM (inactive) | 19 µM (inactive) |  |
| CC(C)NC(=O)CN1CCN(C2=C(Cl)C(=O)c3c(O)ccc(O)c3C2=O)CC1 | 2.38 µM (inactive) | 1.97 µM (inactive) | 1.49 µM (inactive) | 1.54 µM (inactive) | 0.693 µM | 0.293 µM (active) | 1.62 µM (inactive) | 1.49 µM (inactive) | 3.46 µM (inactive) | 8.13 µM (inactive) | 2.39 µM (inactive) | 1.9 µM (inactive) | 13.6 µM (inactive) | 1.89 µM (inactive) | 6.5 µM (inactive) | 1.57 µM (inactive) | 1.82 µM (inactive) | 7.5 µM (inactive) | 3.05 µM (inactive) |  |
| COc1nc2cccc(C(O)c3ccccc3)c2nc1-c1ccccc1 (stereo not given) | 3.85 µM (inactive) | 2.88 µM (inactive) | 13.9 µM (inactive) | 3.64 µM (inactive) | 4.43 µM | 3.02 µM (inactive) | 1.78 µM (inactive) | 1.55 µM (inactive) | 9.12 µM (inactive) | 4.88 µM (inactive) | 2.28 µM (inactive) | 8.95 µM (inactive) | 4.36 µM (inactive) | 4.46 µM (inactive) | 6.04 µM (inactive) | 3.91 µM (inactive) | 9.06 µM (inactive) | 4.14 µM (inactive) | 2.81 µM (inactive) |  |
| Cc1cc(C)cc(Sc2c([N+](=O)[O-])ncn2C)c1 |  | 6.03 µM (inactive) |  |  |  | 15.6 µM (inactive) |  |  | 21.3 µM (inactive) | 26.6 µM (inactive) |  | 6.64 µM (inactive) | 25.7 µM (inactive) |  | 18.9 µM (inactive) | 13 µM (inactive) | 14.9 µM (inactive) | 18.2 µM (inactive) | 20.9 µM (inactive) | 8.09 µM (inactive) |
| CCc1nc(N)nc(N)c1-c1ccc([N+](=O)[O-])c(NCc2ccccc2)c1 | 10.7 µM (inactive) | 16.3 µM (inactive) | 16.9 µM (inactive) | 14.4 µM (inactive) | 12.3 µM | 8.85 µM (inactive) | 14.6 µM (inactive) | 16 µM (inactive) | 10.1 µM (inactive) | 6.17 µM (inactive) | 13.8 µM (inactive) | 15.9 µM (inactive) | 16.4 µM (inactive) | 12.8 µM (inactive) | 17.3 µM (inactive) | 13.2 µM (inactive) | 14.9 µM (inactive) | 6.17 µM (inactive) | 15.5 µM (inactive) |  |
| COC(=O)[C@@H]1C=C[C@H](NC(C)=O)C1 | > 100 µM (inactive) |  | > 100 µM (inactive) | > 100 µM (inactive) | > 100 µM | > 100 µM (inactive) | > 100 µM (inactive) | > 100 µM (inactive) | > 100 µM (inactive) |  | > 100 µM (inactive) |  | > 100 µM (inactive) | > 100 µM (inactive) | > 100 µM (inactive) | > 100 µM (inactive) |  | > 100 µM (inactive) | > 100 µM (inactive) |  |
| O=c1cc(-c2cc(O)c(O)c(-c3c(O)cc4oc(-c5ccc(O)c(O)c5)cc(=O)c4c3O)c2)oc2cc(O)cc(O)c12 | > 25 µM (inactive) | > 25 µM (inactive) | > 25 µM (inactive) | > 25 µM (inactive) | > 25 µM | > 25 µM (inactive) | > 25 µM (inactive) | > 25 µM (inactive) | 24.9 µM (inactive) | > 25 µM (inactive) | > 25 µM (inactive) |  |  | > 25 µM (inactive) |  | > 25 µM (inactive) | > 25 µM (inactive) | > 25 µM (inactive) | > 25 µM (inactive) |  |
| CCCCn1c2c(n(CCCC)c1=S)-c1c(n(CCCC)c(=S)n1CCCC)S[Se][Se]S2 | 21.1 µM (inactive) | 3.81 µM (inactive) | 4.55 µM (inactive) | 3.96 µM (inactive) | 2.94 µM | 0.26 µM (active) | 4.95 µM (inactive) | 8.83 µM (inactive) | 5.13 µM (inactive) | 19.7 µM (inactive) | 5.25 µM (inactive) | 0.171 µM (active) | 5.42 µM (inactive) | 2.26 µM (inactive) | 18.7 µM (inactive) | 0.931 µM (active) | 7.13 µM (inactive) | 9.95 µM (inactive) | 38.7 µM (inactive) |  |
| O=[N+]([O-])c1ccccc1C1SCc2nc3ccccc3n21 (stereo not given) |  | > 100 µM (inactive) |  | > 100 µM (inactive) |  | 69.5 µM (inactive) |  |  |  | 52.4 µM (inactive) |  | > 100 µM (inactive) | > 100 µM (inactive) |  | > 100 µM (inactive) |  | > 100 µM (inactive) | 78.9 µM (inactive) | 63 µM (inactive) | > 100 µM (inactive) |
| COc1cc(/C=C2\N=C(c3ccccc3)N(c3ccc(C(=O)c4ccccc4)cc3N3C(=O)/C(=C/c4cc(OC)c(OC)c(OC)c4)N=C3c3ccccc3)C2=O)cc(OC)c1OC | 7.8 µM (inactive) |  | 14.4 µM (inactive) | 11.2 µM (inactive) | 5.62 µM | 5.31 µM (inactive) | 2.85 µM (inactive) | 2.73 µM (inactive) | 7.36 µM (inactive) | 13.7 µM (inactive) | 17.9 µM (inactive) | 4.65 µM (inactive) | 25.6 µM (inactive) | 12.6 µM (inactive) | 13.2 µM (inactive) | 2.08 µM (inactive) | 20.3 µM (inactive) | 8.49 µM (inactive) | 12 µM (inactive) |  |
